According to patent US10052326B1, “Antihepatotoxic agents” (KING SAUD UNIVERSITY, priority 2017, dated 2018):
Blank lines part the entries; values can stand above or below the compound they belong to.

Key:
[1] = tested on: CCl4-induced hepatotoxicity; test: Estimation of serum marker enzymes and bilirubin in CCl4-intoxicated rats; type: in vivo, Wistar albino rats; conditions: 20 mg/kg orally for 2 weeks before CCl4, vs CCl4 group
Description: (§1) Animals and study design: Wistar albino rats (180-200 g) were obtained from the Experimental Animal Care Center of the College of Pharmacy, King Saud University, Riyadh. Animals were maintained on standard chow diet and housed in polycarbonate cages in a room free from any source of chemical contamination, artificially illuminated (12 h dark/light cycle) and thermally controlled (25±2° C.) at the animal facility. All animals received humane care in compliance with the guidelines of the Ethics Committee of the Experimental Animal Care Society, College of Pharmacy, King Saud University, Riyadh, Saudi Arabia. After a one-week acclimatization period, animals were randomly allocated into 5 groups and treated as follows: group (1), untreated control; and groups 2, 3, 4, and 5 received 0.25 mL of CCl4 in liquid paraffin (1:1) 1.25 mL/kg body weight intraperitoneally (IP). Group 2 was administered only CCl4. Groups 3 and 4 received DHBP-2 (10 mg/kg) and (20 mg/kg/day) orally for 2 weeks, respectively. Rats in group 5 were treated with (10 mg/kg) orally with silymarin for similar days. The blood was collected by cardiac puncture after 24 hours following the administration of CCl4, allowed to clot, and the serum was then separated. After collecting the blood, the animals were sacrificed using ether anesthesia. The rat livers were dissected out and used for biochemical estimations and histological assessment.
Estimation of marker enzymes: Serum glutamate oxaloacetate transaminase (SGOT/AST), serum glutamate pyruvate transaminase (SGPT/ALT) (Reitman S. A. et al., Am. J. Clin. Pathol. 1957, 28 (1), 56-63), alkaline phosphatase (ALP), gamma-glutamyl transferase (GGT) and bilirubin were determined using Reflotron Plus Analyzer and Roche kits (Roche Diagnostics GmbH, Mannheim, Germany) (King E. J. et al., Practical Clinical Biochemistry, H. Varley, Ed., CBS publishers, New Delhi, India, 1988).

[2] = tested on: CCl4-induced hepatotoxicity; test: Estimation of hepatic non-protein sulfhydryls (NP-SH) in CCl4-intoxicated rats; type: in vivo, Wistar albino rats; conditions: liver tissue; for NP-SH: n = 6, mean
Description: as §1
Estimation of non-protein sulfhydryls (NP-SH): Hepatic non-protein sulfhydryls were measured according to the method of Sedlak and Lindsay et. al., Analytical Biochemistry C, 1968, 25, 192-205. The livers were homogenized in ice-cold 0.02 mmol/L ethylenediaminetetraacetic acid (EDTA). The absorbance was measured within 5 min. of addition of 5,5′-dithio-bis(2-nitrobenzoic acid) (DTNB) at 412 nm against a reagent blank.

[3] = tested on: CCl4-induced hepatotoxicity; test: Determination of malondialdehyde (MDA) in liver tissue of CCl4-intoxicated rats; type: in vivo, Wistar albino rats
Description: as §1
Determination of malondialdehyde (MDA): The method reported by (Utley H. C. et al., Archives of Biochemistry Biophysics, 1967, 260, 521-531) was followed. Briefly, the liver tissues were removed, and tissue was homogenized in 0.15 M KCl (at 4° C.; Potter-Elvehjem type C homogenizer) to give a 10% w/v homogenate. The absorbance of the solution was then read at 532 nm. The content of malondialdehyde (nmol/g wet tissue) was then calculated, by reference to a standard curve of malondialdehyde solution.

[4] = tested on: CCl4-induced hepatotoxicity; test: Serum lipid profile in CCl4-intoxicated rats; type: in vivo, Wistar albino rats; conditions: 20 mg/kg, two week pretreatment before CCl4
Description: as §1

[5] = tested on: CCl4-induced hepatotoxicity; test: Determination of total protein (TP) in CCl4-intoxicated rats; type: in vivo, Wistar albino rats; conditions: liver tissue; for Total Protein: n = 6, mean
Description: as §1
Determination of total protein (TP): Total protein was estimated by the kit method, supplied by Crescent Diagnostics, Jeddah, Saudi Arabia. The absorbance of this complex at 546 nm is proportional to the protein concentration. […]

[6] = tested on: CCl4-induced hepatotoxicity in hepatocytes of rats; test: Histopathological evaluation of liver of CCl4-intoxicated rats; type: in vivo, Wistar albino rats; conditions: light micrographs, hematoxylin and eosin
Description: as §1, with “The rat livers were dissected out and used for biochemical estimations and histological assessment.” left out

[7] = tested on: mice; test: Acute toxicity test, oral administration; type: in vivo; conditions: in 0.5% CMC, observation up to 14 days
Description: Acute toxicity test: The acute toxicity test was performed on mice, for oral administration. DHPB-2 was dissolved in 0.5% CMC (carboxymethylcellulose) in water and administered at various doses, ranging from ([…]), to different groups of mice. The animals were observed continuously for 1 h and then at half hourly intervals for 4 h on the first day for clinical signs and symptoms of toxicity, and further up to 72 h followed by 14 days, for any mortality.

- melting point: 210 to 212 °C
SMILES: CCOc1ccc(C2NC(=O)NC=C2C(=O)c2ccc3c(c2)OCCO3)cc1 (centres unmarked) [DHPB-6, 4-(4-Ethoxyphenyl)-5-(2,3-dihydro-1,4-benzodioxin-6-ylcarbonyl)-3,4-dihydro-pyrimidin-2(1H)-one]

SMILES: O=C1NC=C(C(=O)c2ccc3c(c2)OCCO3)C(c2ccc([N+](=O)[O-])cc2)N1 (centres unmarked) [DHPB-2, 4-(4-Nitrophenyl)-5-(2,3-dihydro-1,4-benzodioxin-6-ylcarbonyl)-3,4-dihydro-pyrimidin2(1H)-one]
- ALP level [1]: significant decrease
- ALT level [1]: significant decrease
- AST level [1]: significant decrease
- GGT level [1]: significant decrease
- bilirubin level [1]: significant decrease
- NP-SH level (in words) ([2]; 20 mg/kg, vs CCl4 group): significantly enhanced
- NP-SH ([2]; dose 10 mg/kg + CCl4): 4.30 nmol/g
- NP-SH ([2]; dose 20 mg/kg + CCl4): 6.16 nmol/g
- level of MDA (in words) ([3]; 20 mg/kg, vs CCl4 group): significant reduction
- MDA ([3]; dose 10 mg/kg + CCl4, n = 6, mean): 6.84 nmol/g
- MDA ([3]; dose 20 mg/kg + CCl4, n = 6, mean): 1.59 nmol/g
- HDL cholesterol level [4]: significantly improved
- LDL cholesterol level [4]: significantly reduced
- VLDL cholesterol level [4]: significantly reduced
- cholesterol level [4]: significantly reduced
- triglycerides level [4]: significantly reduced
- TP level (in words) ([5]; 20 mg/kg, vs CCl4 group): significantly enhanced
- Total Protein ([5]; dose 10 mg/kg + CCl4): 38.11 g/L
- Total Protein ([5]; dose 20 mg/kg + CCl4): 74.03 g/L
- histopathological assessment of the liver ([6]; 10 mg/kg/day oral pretreatment): marked improvement in liver parenchyma
- histopathological assessment of the liver ([6]; 20 mg/kg/day oral pretreatment): marked improvement in liver parenchyma
- dose up to which no toxicity symptoms and no morbidity were observed [7]: up to 500 mg/kg
